Here are results for three molecules from paper PMC2680961, “Homologous desensitization of signalling by the alpha (α) isoform of the human thromboxane A2 receptor: A specific role for nitric oxide signalling” (Biochimica et Biophysica Acta, 2007).

One data set relates to eNOS. The data set is described as follows: eNOS phosphorylation (anti-phospho eNOS^Ser1177 western blot). The format is cell-based, human. As to conditions: HEK.TPα cells (also HEK 293, HEK.TPβ); 1 μM U46619 or 10 U/ml Thrombin, 5 min, 37 °C. On the procedure: In order to assess eNOS phosphorylation, HEK.TPα, HEK.TPβ or HEK 293 cells (2 × 10^6 cells/10-cm dish) were plated some 48 h prior to experimentation. Cells were incubated with vehicle, 1 μM U46619 or 10 U/ml Thrombin for 5 min at 37 °C and aliquots of whole cell protein (100 μg/lane) were analysed by SDS-PAGE/western blot. Blots were initially screened using the anti-phospho eNOS^1177 as per supplier's instructions (Cell Signalling Technology) and, following stripping, were subsequently re-screened using the anti-eNOS (Transduction Laboratories).
A general note: Immunoblotting shows a protein as a band on a membrane.

Data set [1] has as its target T1, TPα (Homo sapiens, UniProt P21731).
T1 construct: expressed in transfected cells
T1 sequence (P21731 1-343): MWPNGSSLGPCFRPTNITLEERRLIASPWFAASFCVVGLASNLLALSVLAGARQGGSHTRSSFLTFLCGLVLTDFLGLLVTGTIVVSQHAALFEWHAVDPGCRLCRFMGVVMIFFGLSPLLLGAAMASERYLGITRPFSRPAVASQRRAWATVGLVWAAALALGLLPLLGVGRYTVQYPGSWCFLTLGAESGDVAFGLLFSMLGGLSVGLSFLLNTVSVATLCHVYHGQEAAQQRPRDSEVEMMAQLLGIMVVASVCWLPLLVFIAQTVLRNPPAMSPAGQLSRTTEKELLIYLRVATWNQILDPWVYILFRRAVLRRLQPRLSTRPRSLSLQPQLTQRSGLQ
The data set is described as follows: Intracellular calcium mobilization, HEK.TPα cells. In kind it is cell-based. As to conditions: for Δ[Ca2+]i, U46619-induced: HEK.TPα. The procedure: Measurement of intracellular calcium mobilization ([Ca^2+]i) in FURA2/AM preloaded HEK 293 cell lines (2 × 10^6 cells/dish), each transiently co-transfected with pADVA (10 μg), and pCMV:Gαq (25 μg), was carried out as previously described. To investigate the effect of GRK2/βARK1 on TP-mediated [Ca^2+]i mobilization, HEK.TPα or HEK.TPβ cells (2 × 10^6 cells/dish) were co-transfected with pADVA (10 μg), pCMV:Gαq (25 μg) along with pRK5:βARK1^495–689 (25 μg), encoding a dominant negative form of GRK2/βARK1[39]. Approximately 48 h post-transfection, cells were harvested by scraping, washed twice in ice-cold PBS and resuspended in HBSSHB (modified Ca^2+/Mg^2+-free Hank's buffered salt solution, containing […], pH 7.67, 0.1% bovine serum albumin (BSA)) buffer at 10^7 cells/ml and incubated in the dark with 5 μM FURA2/AM for 45 min at 37 °C. Cells were collected by centrifugation (900×g, 5 min), washed once in an equal volume of HBSSHB, and were finally resuspended in HBSSHB buffer at 10^7 cells/ml and kept at room temperature in the dark for 40 min. For each measurement of [Ca^2+]i mobilization, aliquots of cells were diluted to 0.825 × 10^6 cells/ml in HBSSHB, 1 mM CaCl2 and FURA2 fluorescence was recorded (2 ml aliquots of cells) at 37^ °C with gentle stirring with a Perkin Elmer-Cetus LS50-B spectrofluorometer at excitation wavelengths of 340 nm and 380 nm and emission wavelength of 510 nm, respectively.
[…] To assess agonist-mediated homologous desensitization, cells (0.825 × 10^6 cells/ml; 2 ml per assay) were stimulated with 1 μM U46619 (Primary stimulation) or, as a control, with the vehicle for 4 min; thereafter, cells were collected by centrifugation (900×g, 5 min); were washed twice in 2 ml HBSSHB, 1 mM CaCl2; and finally resuspended in 2 ml HBSSHB,1 mM CaCl2 and were left to recover over various time intervals (ranging from 0 to 60 min); thereafter, cells re-stimulated with 1 μM U46619 (Secondary stimulation) and changes in [Ca^2+]i mobilization were monitored as a function of time. To assess the role of protein kinase (PK) A, PKC or PKG on U46619-mediated desensitization of TPα signalling, cells were pre-incubated with the PKA inhibitor H-89 (10 μM), the PKC inhibitor GF 109203X (50 nM) or the PKG inhibitor KT 5823 (50 nM), for 15 min and respective kinase inhibitors were maintained throughout the primary/secondary U46619-stimulations and during the washes.
The vehicle had no effect on U46619-mediated [Ca^2+]i mobilization. Calibration of the signal was performed in each sample by adding 0.2% Triton X-100 to obtain the maximal fluorescence ratio (Rmax) and then 1 mM EGTA to obtain the minimal fluorescence ratio (Rmin). The ratio of the fluorescence at 340 nm to that at 380 nm is a measure of [Ca^2+]i, which assumes a Kd of 225 nM Ca^2+ for FURA2/AM. The results presented in the figures are representative data from at least three or four independent experiments and are plotted as changes in Ca^2+i mobilized (Δ[Ca^2+]i (nM)) as a function of time (s) upon ligand stimulation. Changes in [Ca^2+]i mobilization were determined by measuring peak rises in [Ca^2+]i mobilized (Δ[Ca^2+]i) and were calculated as mean changes in Δ[Ca^2+]i ± S.E.M. (nM).

Data set [2] addresses T1, TPα. Description: Agonist-mediated TP phosphorylation in whole cells, HEK.TPα. The format is cell-based. On the procedure:
(§1) Agonist-mediated TP phosphorylation in whole cells (1.8–2 × 10^6 cells/10 cm dish) was performed essentially as previously described. Briefly, cells were transiently co-transfected with pADVA (10 μg), pCMV:Gαq (25 μg) plus pcDNA:βArrestin2 (25 μg) approximately 48 h prior to labelling. Thereafter, cells were washed once in phosphate-free DMEM, 10% dialysed FBS and were metabolically labelled for 60 min in the same medium (2 ml/10 cm dish) containing 100 μCi/ml [^32P] orthophosphate (8000–9000 Ci/mmol) at 37 °C, 5% CO2. Where appropriate, the PKG kinase inhibitor KT 5823 (50 nM) or its vehicle was added during the labelling period. Thereafter, U46619 (1 μM) or an equivalent volume of vehicle (0.01% ethanol in HBS; 20 μl) were added and cells were incubated for 10 min at 37 °C, 5% CO2. Reactions were terminated by transferring the dishes to ice and aspirating the labelled medium and HA-epitope tagged TP receptors were processed and immunoprecipitated using the anti-HA 101R antibody as previously described. Electroblots were then exposed to Xomat XAR (Kodak) film to detect ^32P-labelled proteins. Thereafter, blots were subject to phosphorimage analysis, and the intensities of agonist-induced phosphorylation were expressed in arbitrary units relative to basal (vehicle-stimulated) levels. In parallel experiments, cells were incubated under identical conditions in the absence of [^32P] orthophosphate; HA-tagged TP receptors were immunoprecipitated from the same cell lines using the anti-HA 101R antibody and immunoblots were screened using the anti-HA 3F10 horseradish peroxidase-conjugated antibody.

The target in another data set is T2, TPα^S331A (Homo sapiens, UniProt P21731, S331A).
T2 construct: expressed in transfected cells
T2 sequence (P21731 1-343 S331A): T1 sequence (P21731 1-343) with S331A
The data set is described as follows: Agonist-mediated TP phosphorylation in whole cells, HEK.TPα^S331A. In kind it is cell-based. The procedure:
as §1

In another data set the target is T3, TPβ (Homo sapiens, UniProt P21731).
T3 construct: expressed in transfected cells
Description: Intracellular calcium mobilization, HEK.TPβ cells. The format is cell-based. (A change in cytosolic calcium serves as a functional read-out for many receptors and channels.)

On the set-up of data set [3]: method as in PMID 10508233. As to conditions: rapidly hydrolysed to inactive metabolite TXB2; estimated; cited from earlier work.
[4] abbreviates: primary 1 μM U46619 in presence of 50 nM KT 5823.
[5] abbreviates: secondary 1 μM U46619 at 15 min in presence of 50 nM KT 5823.
The mark [6] stands for this setting: 1 μM U46619 plus 50 nM KT 5823 pre-incubation.

Substitutions are numbered along the chain they refer to.

T3 sequence (P21731 1-407 isoform P21731-2): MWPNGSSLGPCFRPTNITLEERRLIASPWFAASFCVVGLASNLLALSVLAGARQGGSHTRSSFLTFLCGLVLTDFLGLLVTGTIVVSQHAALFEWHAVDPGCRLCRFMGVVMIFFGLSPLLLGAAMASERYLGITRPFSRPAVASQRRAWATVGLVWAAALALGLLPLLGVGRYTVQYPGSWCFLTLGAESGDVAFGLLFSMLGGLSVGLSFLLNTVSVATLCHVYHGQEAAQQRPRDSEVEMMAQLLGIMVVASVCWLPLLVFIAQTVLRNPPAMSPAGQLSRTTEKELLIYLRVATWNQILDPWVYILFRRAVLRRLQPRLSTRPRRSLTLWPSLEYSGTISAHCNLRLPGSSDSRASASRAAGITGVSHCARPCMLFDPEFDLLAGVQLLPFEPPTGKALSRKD

For the molecule thrombin, the “eNOS phosphorylation at Ser^1177” value in the data set on eNOS was “readily lead to eNOS phosphorylation”.
As for `COC(=O)[C@@]1(OC)C[C@H]2O[C@]1(C)n1c3ccccc3c3c4c(c5c6ccccc6n2c5c31)C(=O)N(C)C4` [KT 5823], the “Δ[Ca2+]i, U46619-induced” value at TPα [1] (setting [4]) is recorded as 160 ± 7.9 nM; on TPα [1] (setting [5]) it was 60 ± 7 nM; at TPβ (setting [4]), 170 ± 25 nM; on TPβ (setting [5]), 0 nM. Also, on TPα [1] (TPα, in presence of KT 5823 (50 nM)), the “secondary U46619 [Ca2+]i response relative to primary response” value is on record as “approximately 38%”. For the same molecule, the “U46619-mediated TPα phosphorylation relative to basal (vehicle)” value on TPα [2] (setting [6]) is 2 fold. In addition, the “reduction of agonist-induced TPα phosphorylation” value at TPα [2] (pre-incubation with KT 5823, 1 μM U46619) is given as 2.5 fold. In addition, the “U46619-mediated TPα^S331A phosphorylation relative to basal (vehicle)” value at TPα^S331A (setting [6]) is on record as 1.5 fold. Further, the “effect on agonist-induced phosphorylation of TPα^S331A” value at TPα^S331A (preincubation with KT 5823) is on record as “not significantly affected”. Also, the “effect of inhibitor on U46619-induced [Ca2+]i mobilization by TPβ” value on TPβ (inhibitor pre-incubated 15 min, primary/secondary U46619 stimulation) is recorded as “no significant effect”.
With `CCCCC[C@H](O)/C=C/[C@H]1O[C@H]2C[C@H](O2)[C@@H]1C/C=C\CCCC(=O)O` [TXA2], the half-life (as a rule, the time in which the quantity being followed falls by half) in data set [3] is given as 30 s.
